Source: ChEMBL document CHEMBL1153966, “Synthesis, cytotoxicity, and haemolytic activity of chacotrioside lupane-type neosaponins and their germanicane-type rearrangement products” (Bioorg Med Chem Lett, 2009)

Assays:
[1] = Toxicity in sheep erythrocytes assessed as induction of hemolysis; assay type: cell-based, Ovis aries, Erythrocyte; conditions: read-out: HD50 (the source's name)
[2] = Cytotoxicity against human WS1 cells by resazurin reduction test; assay type: cell-based
[3] = system: DLD-1; experiment: Cytotoxicity against human DLD1 cells by resazurin reduction test; assay type: functional, cell-based
[4] = system: PC-3; experiment: Cytotoxicity against human PC3 cells by resazurin reduction test; assay type: functional, cell-based
[5] = system: MCF7; experiment: Cytotoxicity against human MCF7 cells by resazurin reduction test; assay type: functional, cell-based
[6] = system: A549; experiment: Cytotoxicity against human A549 cells by resazurin reduction test; assay type: functional, cell-based

| SMILES | HC50 [1] [µM] | IC50 [2] [µM] | IC50 [3] [µM] | IC50 [4] [µM] | IC50 [5] [µM] | IC50 [6] [µM] |
| --- | --- | --- | --- | --- | --- | --- |
| C=C(C)[C@@H]1CC[C@]2(C(=O)O)CC[C@]3(C)[C@H](CC[C@@H]4[C@@]5(C)CC[C@H](O)C(C)(C)[C@@H]5CC[C@]43C)[C@@H]12 [BETULINIC ACID] | > 100 | 12 | – | – | – | – |
| C=C(C)[C@@H]1CC[C@]2(CO)CC[C@]3(C)[C@H](CC[C@@H]4[C@@]5(C)CC[C@H](O[C@@H]6O[C@H](CO)[C@@H](O[C@@H]7O[C@@H](C)[C@H](O)[C@@H](O)[C@H]7O)[C@H](O)[C@H]6O[C@@H]6O[C@@H](C)[C@H](O)[C@@H](O)[C@H]6O)C(C)(C)[C@@H]5CC[C@]43C)[C@@H]12 | > 100 | > 50 | > 50 | > 50 | > 50 | > 50 |
| C=C(C)[C@@H]1CC[C@]2(C)CC[C@]3(C)[C@H](CC[C@@H]4[C@@]5(C)CC[C@H](O[C@@H]6O[C@H](CO)[C@@H](O[C@@H]7O[C@@H](C)[C@H](O)[C@@H](O)[C@H]7O)[C@H](O)[C@H]6O[C@@H]6O[C@@H](C)[C@H](O)[C@@H](O)[C@H]6O)C(C)(C)[C@@H]5CC[C@]43C)[C@@H]12 | 30 | > 50 | > 50 | > 50 | > 50 | > 50 |
| C[C@@H]1O[C@@H](O[C@H]2[C@H](O[C@H]3CC[C@]4(C)[C@H]5CC[C@@H]6[C@H]7[C@H]8OC(=O)[C@@]7(CCC8(C)C)CC[C@@]6(C)[C@]5(C)CC[C@H]4C3(C)C)O[C@H](CO)[C@@H](O[C@@H]3O[C@@H](C)[C@H](O)[C@@H](O)[C@H]3O)[C@@H]2O)[C@H](O)[C@H](O)[C@H]1O | 8 | 3.8 | 14 | 10 | 18 | 13 |
| C=C(C)[C@@H]1CC[C@]2(C(=O)O)CC[C@]3(C)[C@H](CC[C@@H]4[C@@]5(C)CC[C@H](O[C@@H]6O[C@H](CO)[C@@H](O[C@@H]7O[C@@H](C)[C@H](O)[C@@H](O)[C@H]7O)[C@H](O)[C@H]6O[C@@H]6O[C@@H](C)[C@H](O)[C@@H](O)[C@H]6O)C(C)(C)[C@@H]5CC[C@]43C)[C@@H]12 | > 100 | > 50 | > 50 | > 50 | > 50 | > 50 |
| C=C(C)[C@@H]1CC[C@]2(C)CC[C@]3(C)[C@H](CC[C@@H]4[C@@]5(C)CC[C@H](O)C(C)(C)[C@@H]5CC[C@]43C)[C@@H]12 [LUPEOL] | > 100 | > 50 | > 50 | > 50 | > 50 | > 50 |
| CC1(C)CC[C@]23CC[C@]4(C)[C@H](CC[C@@H]5[C@@]6(C)CC[C@H](O)C(C)(C)[C@@H]6CC[C@]54C)[C@H]2[C@H]1OC3 [ALLOBETULIN] | > 100 | > 50 | > 50 | > 50 | > 50 | > 50 |
| C=C(C)[C@@H]1CC[C@]2(CO)CC[C@]3(C)[C@H](CC[C@@H]4[C@@]5(C)CC[C@H](O)C(C)(C)[C@@H]5CC[C@]43C)[C@@H]12 [BETULIN] | > 100 | 3.6 | – | – | – | – |
| C[C@@H]1O[C@@H](O[C@H]2[C@H](O[C@H]3CC[C@]4(C)[C@H]5CC[C@@H]6[C@H]7[C@H]8OC[C@@]7(CCC8(C)C)CC[C@@]6(C)[C@]5(C)CC[C@H]4C3(C)C)O[C@H](CO)[C@@H](O[C@@H]3O[C@@H](C)[C@H](O)[C@@H](O)[C@H]3O)[C@@H]2O)[C@H](O)[C@H](O)[C@H]1O | 90 | 9 | 13 | 13 | 15 | 14 |
| CC1(C)CC[C@]23CC[C@]4(C)[C@H](CC[C@@H]5[C@@]6(C)CC[C@H](O)C(C)(C)[C@@H]6CC[C@]54C)[C@H]2[C@H]1OC3=O | > 100 | > 50 | > 50 | > 50 | > 50 | > 50 |
